# Details: buffer; pH 7.4; 200.0 µM
row,SMILES,solubility kinetic [µg/mL]
1,O=C(CSc1ccc([N+](=O)[O-])cc1)Nc1cccc(S(=O)(=O)N2CCOCC2)c1,17.1
2,O=C(Nc1ccc2c(c1)CCC2)c1ccc(Cl)nc1,7.8
3,CCOC(=O)Cc1csc(NC(=O)c2ccc(C)cc2)n1,45.6
4,Cc1ccc(S(C)(=O)=NC(=O)c2cc(C)on2)cc1 (stereo not drawn),41.5
5,CCc1ccc(C(=O)COC(=O)C2=NN(c3ccccc3)C(=O)CC2)cc1,> 54.7
6,CC(=O)Nc1ccc(CN2CCCCCC2)cc1,33.9
7,CCCOc1ccc(C(C)=O)cc1Cc1c(O)[nH]c(=S)[nH]c1=O,29.4
8,CC(C)(C)OC(=O)N1CCC[C@@H]1CO,> 30.2
9,CCN(C(=O)COC(=O)CN1C(=O)c2ccccc2C1=O)c1ccccc1,> 55
10,CCCS(=O)(=O)C/C(N)=N/OC(=O)c1ccccc1Cl,38
11,CCCOc1ccc(N2C(=O)CC(N(CCCO)C(=O)CC)C2=O)cc1 (stereo not drawn),> 54.4
12,O=C(O)CC1c2ccccc2CCN1S(=O)(=O)c1cccs1 (stereo not drawn),> 50.6
13,Cc1ncc(CN2CCC(CO)(Cc3ccccc3)CC2)s1,45.5
14,CCN1C(=O)c2ccccc2Sc2ccc(C(=O)NC(C)C)cc21,47.9
15,O=S(=O)(Nc1cc(Cl)cc(Cl)c1)N1CCOCC1,> 46.7
16,O=C(COC(=O)c1cnccn1)Nc1cc(S(=O)(=O)N2CCOCC2)ccc1Cl,> 66.1
17,CC(=O)Nc1ccccc1C(=O)N1CCN(c2cccc(C)c2C)CC1,> 52.7
18,Cc1cccc(-c2onc3ccc(C(=O)/C=C/N(C)C)cc23)c1,3.3
19,S=C(Nc1ccc2c(c1)OCCO2)Nc1ccccc1Cl,> 48.1
20,Cc1ccc(C2NCCS2)cc1 (stereo not drawn),> 26.9
21,O=c1nc(SCc2ccc(Cl)cc2)nc(-c2ccccc2)[nH]1,4.5
22,Cc1ccc(OCC(=O)Nc2cccc3ccccc23)c([N+](=O)[O-])n1,31.5
23,Cc1c(Cl)cnc(NC(=O)COC(=O)[C@@H](NC(=O)c2ccco2)C(C)C)c1Cl,> 64.2
24,CN(C)/C=N/c1ncc(C(=O)c2ccc(-c3ccccc3)cc2)s1,1.1

row,SMILES,solubility kinetic [µg/mL]
1,C=CCNc1nc2c(c(=O)[nH]c(=O)n2C)n1CCOc1ccccc1,3.3
2,O=C(NCCN1CCOCC1)c1cc(-c2cccc(O)c2)on1,> 47.6
3,CC(C)CC(=O)Nc1sc2c(c1C(=O)O)CCCCC2,42
4,Cc1ccc(OCC(=O)N2CC(C)OC(C)C2)c([N+](=O)[O-])n1 (stereo not drawn),> 46.4
5,N#CCOC(=O)[C@H](Cc1ccccc1)N1C(=O)c2ccccc2C1=O,47.3
6,O=C(NCCCNC(=O)c1cc(Cl)ccc1Cl)c1cnccn1,45.4
7,COc1ccc(CCC(=O)N2CCCc3ccccc32)cc1,39.1
8,Cc1ccc(NS(=O)(=O)c2cccc3nsnc23)cc1[N+](=O)[O-],50.2
9,CCOC(=O)Cn1cc(C(=O)C(C)(C)C)c2ccccc21,> 43.1
10,On1c(-c2ccc(Cl)cc2Cl)nc2ncccc21,> 42
11,Cc1ccc(N=C2NC(=O)/C(=C/c3cccn3C)S2)cc1,2
12,O=C(C1CCCC1)N1CCCC(Nc2ccc(F)cc2)C1 (stereo not drawn),> 43.6
13,Cc1cc(NC(=O)CN2CCC(C)CC2)no1.O=C(O)C(=O)O,> 49.1
14,CN(c1ccccc1)S(=O)(=O)c1cccc(NC(=O)CCNC(=O)c2ccc([N+](=O)[O-])cc2)c1,13
15,CC(=O)Nc1ccc(C(=O)N2CCCc3ccccc32)cc1,> 44.2
16,O=C(OC1CCOC1=O)c1ccc(N2CCCC2)c([N+](=O)[O-])c1 (stereo not drawn),> 48
17,Cc1c(C(=O)N(C)Cc2ccc(OC(F)F)cc2)oc2ccccc12,6.5
18,Cc1ccc(NC(=O)c2ccc3c(c2)OCO3)cc1Cl,0.9
19,CCOc1cc(C(N)=O)cc(Cl)c1OCC,34.6
20,C=CCOc1ccccc1CNCc1ccc(F)cc1.Cl,> 46.2
21,CN(C)C(=S)Nc1ccc(N2CCOCC2)cc1,> 39.8
22,CN1CC(c2ccccc2)Oc2ccccc2C1=S (stereo not drawn),5.6
23,O=C(NCc1ccncc1)NC1CCCCC1,> 35
24,COc1cc(C(=O)OCC(=O)NCCCc2ccccc2)ccc1OCC(C)C,1.2

row,SMILES,solubility kinetic [µg/mL]
1,O=C(NCCC1=CCCCC1)C(=O)NCCc1ccc(Cl)cc1,< 0.4
2,FC(F)(F)c1ccc(NC2=NCCC2)cc1,> 34.2
3,O=C(CSCc1ccccc1F)NCc1ccc(F)cc1,> 46.1
4,O=C(Cn1cnc2ccccc21)c1ccc(Cl)cc1,28.9
5,Cc1cccc(CC(=O)N2CCCC2)c1,28.7
6,c1ccc(CCNc2nc(-c3ccncc3)nc3ccccc23)cc1,0.3
7,Cc1ccc(CNS(=O)(=O)c2ccc(C(F)(F)F)cc2)n1C,30.6
8,Cc1ccc(S(=O)(=O)NC2CC2)cc1,> 31.7
9,CC(NC(=O)COC(=O)c1ccc[nH]c1=O)c1ccccc1 (stereo not drawn),> 45
10,COc1ccc(NC(=O)c2ccc3c(c2)OCO3)cc1S(=O)(=O)N1CCOCC1,14.7
11,CC(=O)NC(Cc1ccccc1)Cc1ccccc1,> 38
12,CC(C)c1nc(NCCO)c(C#N)c2c1CCCC2,9
13,CC(=O)/C(=C(/O)c1ccccc1)c1nc2ccccc2[nH]1,1.4
14,CCOP(=O)(OCC)/C(C#N)=C(\O)c1ccc(OC)cc1,> 46.7
15,C#CCN(C)CCCOc1ccc(Cl)cc1Cl.Cl,8.7
16,C/C(Cl)=C/Cc1c(C)[nH]c2c(ccc3ccccc32)c1=O,< 0.6
17,CC(C#N)Sc1nnc(-c2ccccc2F)n1C1CC1 (stereo not drawn),> 43.3
18,O=C(Nc1ccccc1Cl)OC1CN2CCC1CC2 (stereo not drawn),38.1
19,C/C(N)=C(/C#N)C(=O)COC(=O)C1=NN(c2ccccc2)C(=O)CC1,> 51.1
20,CCOC(=O)C1=C(N)Oc2cc(O)ccc2C1c1ccc(C)cc1 (stereo not drawn),< 0.7
21,Cc1ccc(Nc2nc(C(=O)NCC3CCCO3)cs2)cc1 (stereo not drawn),9
22,OC1/C(=C/c2ccc(Cl)cc2Cl)N2CCC1CC2 (stereo not drawn),28
23,CCC(CC)C(=O)c1c[nH]c(C(=O)NCc2ccc(F)cc2)c1,1
24,COc1ccccc1CNC(=O)CN1C(=O)NC(Cc2ccccc2)(c2ccccc2)C1=O (stereo not drawn),32.9

row,SMILES,solubility kinetic [µg/mL]
1,Cc1c(C(=O)CN2CCCC(C)(C)C2)c2ccccc2n1C,> 44.8
2,COc1ccccc1OCCC(=O)OCC(=O)NCc1ccc(Cl)cc1,3.4
3,Cc1ccc(C(=O)NC(C)c2ccc(S(N)(=O)=O)cc2)s1 (stereo not drawn),> 48.7
4,COc1ccccc1N1CCN(C(=O)c2cccc(S(=O)(=O)Nc3ccccc3F)c2)CC1.Cl,> 75.9
5,COc1ccc(CCNC(=O)c2cccnc2Cl)cc1OC,> 48.1
6,COc1ccc(NC(=O)c2oc3ccccc3c2CSC)cn1,3
7,O=C(NC(=S)Nc1cccc([N+](=O)[O-])c1)C1CCCC1,2.6
8,COc1ccc(C(=O)CC(=O)C(=O)Nc2c(C)cccc2C)cc1,15.6
9,Cc1cccc(C)c1NC(=S)N/N=C/c1ccc(C(=O)O)cc1,> 49.1
10,Cc1cc(C(=O)NC2CCCC(C)C2C)c2ccccc2n1 (stereo not drawn),18.9
11,CN(C)/C=C/C(=O)c1ccc(Cl)s1,> 32.4
12,CCOc1ccc(C(=O)N2CCN(c3ccccn3)CC2)cc1,> 46.7
13,COc1ccc(CNCc2ccncc2)cc1OC.Cl,> 44.2
14,COc1ccc(O)c(/C=N/c2sc(C)c(C)c2C#N)c1,1
15,NC(=O)CSc1nc2ccccc2c(=O)n1-c1ccccc1,> 46.7
16,COc1ccccc1N1CCN(CCN2C(=O)C3CCCN3C2=O)CC1 (stereo not drawn),40.7
17,O=C(COC(=O)c1ccc(Br)o1)NCc1ccccc1Cl,9
18,CCCCC(=O)N1CC(=O)Nc2ccc(F)cc2C1c1ccccc1 (stereo not drawn),> 51.1
19,Cc1ccccc1C(=O)N1c2ccccc2OCC1C(C)(C)C (stereo not drawn),< 0.7
20,Cc1ccc(NC(=S)Nc2ccccn2)cc1C,0.4
21,COc1ccc2c(c1)-c1nc(/N=C/c3cccc(OC)c3O)sc1CC2,> 55
22,O=c1c2ccccc2[nH]c2ccc(O)cc12,> 31.7
23,O=C(CN1CCN(Cc2ccc(F)cc2)C1=O)NC1CCCC1,> 47.9
24,O=C(Cn1c(=O)oc2ccccc21)NCC1COc2ccccc2O1 (stereo not drawn),> 51.1

row,SMILES,solubility kinetic [µg/mL]
1,COc1ccc(NC(=O)CNc2ccc(C#N)cc2)cc1,> 42.2
2,Cc1ccccc1NC(=O)/C(C#N)=C/c1ccc[nH]1,2.9
3,COc1ccc(F)cc1S(=O)(=O)NCCCn1ccnc1,> 47
4,N#Cc1ccc(C(=O)NN2C(=O)NC3(CCCCC3)C2=O)cc1,> 46.8
5,O=C(COC(=O)C1CCC1)NCc1ccc(Cl)cc1Cl,> 47.4
6,C=CCN1C(=O)C(CC(=O)O)SC1=Nc1cccc([N+](=O)[O-])c1 (stereo not drawn),> 50.3
7,CCOC(Cn1cc(C)c(=O)[nH]c1=O)OCC,> 36.3
8,O=C1/C(=C/c2ccccn2)SC(=S)N1Cc1ccccc1,< 0.3
9,CC1CCCN(S(=O)(=O)c2cccc(C(=O)OCC(=O)N(C)Cc3c(F)cccc3Cl)c2)C1 (stereo not drawn),8.8
10,COc1ccc([N+](=O)[O-])cc1NC(=O)COC(=O)C=C(C)C,1.1
11,COc1ccc(OC)c(/C=C/C(=O)OCC(=O)N2C(C)CCCC2C)c1 (stereo not drawn),44.1
12,Cc1onc(-c2ccccc2)c1C(=O)N=C(N)c1ccc(C(F)(F)F)cc1,< 0.3
13,Fc1ccc(Nc2nc3ccccc3s2)cc1,0.4
14,Cc1cccc(C(=O)Nc2cccc(C(=O)NC3CCCC3)c2)c1,23.6
15,Cc1cc(C)n2nc(SCC(=O)N3CCN(c4ccccc4)CC3)nc2n1,> 57.4
16,CS(=O)(=O)N1CCc2cc(C(=O)Nc3cccc([N+](=O)[O-])c3)ccc21,< 0.3
17,Cl.NC(=NCCc1ccccc1)NC(=O)c1cc(Cl)ccc1O,10.6
18,CC1C(=O)Nc2ccc(S(=O)(=O)N3CCCCCC3)cc21 (stereo not drawn),> 46.3
19,Cc1cc(C)cc(C(=O)NC2CC(C)(C)NC(C)(C)C2)c1,> 43.3
20,Cc1cc(OCc2nc3ccccc3s2)ccc1N,30.6
21,COc1ccc(CCNc2nc(-c3ccncc3)cs2)cc1OC,35.9
22,CNC(=O)c1oc(-c2ccccc2)nc1C,> 32.4

# — PubChem BioAssay AID1996
